The record followed here is ChEMBL document CHEMBL1134098, “Bioisosteric determinants for subtype selectivity of ligands for heteromeric GABA(A) receptors” (Bioorg Med Chem Lett, 2001).

Assay [1] addresses T1, GABA A receptor alpha-4/beta-3/gamma-2 (Homo sapiens, UniProt P18507+P28472+P48169). The assay can be described thus: Maximal response relative to Gamma-aminobutyric acid A against human Gamma-aminobutyric-acid A receptor alpha-4-beta-3-gamma-2 expressed in Xenopus oocytes. It counts as functional, cell-based. The settings on record: Oocyte.
The target in assay [2] is GABA-A receptor; alpha-2/beta-3/gamma-2 (Homo sapiens) (UniProt P18507+P28472+P47869). The assay can be described thus: Maximal response relative to Gamma-aminobutyric acid A against human Gamma-aminobutyric-acid A receptor alpha-2-beta-3-gamma-2 expressed in Xenopus oocytes. The settings on record: Oocyte. It is filed as functional, cell-based.
The target of assay [3] is GABA-A receptor; alpha-1/beta-3/gamma-2 (Homo sapiens) (UniProt P14867+P18507+P28472). Nature of the assay: Maximal response relative to Gamma-aminobutyric acid A against human Gamma-aminobutyric-acid A receptor alpha-1-beta-3-gamma-2 expressed in Xenopus oocytes. It is filed as functional, cell-based. The settings on record: Oocyte.
The target in assay [4] is GABA-A receptor; alpha-3/beta-3/gamma-2 (Homo sapiens) (UniProt P18507+P28472+P34903). The assay can be described thus: Maximal response relative to Gamma-aminobutyric acid A against human Gamma-aminobutyric-acid A receptor alpha-3-beta-3-gamma-2 expressed in Xenopus oocytes. The settings on record: Oocyte. It is filed as functional, cell-based.
In assay [5] the target is T2, GABA-A receptor; alpha-6/beta-3/gamma-2 (Homo sapiens, UniProt P18507+P28472+Q16445). The assay can be described thus: Maximal response relative to Gamma-aminobutyric acid A against human Gamma-aminobutyric-acid A receptor alpha-6-beta-3-gamma-2 expressed in Xenopus oocytes. It is filed as functional, cell-based. The settings on record: Oocyte.
In assay [6] the target is GABA-A receptor; alpha-5/beta-3/gamma-2 (Homo sapiens) (UniProt P18507+P28472+P31644). The assay can be described thus: Maximal response relative to Gamma-aminobutyric acid A against human Gamma-aminobutyric-acid A receptor alpha-5-beta-3-gamma-2 expressed in Xenopus oocytes. It is filed as functional, cell-based. The settings on record: Oocyte.
Assay [7] concerns the target T1, GABA A receptor alpha-4/beta-3/gamma-2. Nature of the assay: Effective agonist dose for human Gamma-aminobutyric acid A receptor alpha-4-beta-3-gamma-2. It is filed as functional.
Assay [8] deals with T2, GABA-A receptor; alpha-6/beta-3/gamma-2. Nature of the assay: Effective agonist dose for human Gamma-aminobutyric acid A receptor alpha-6-beta-3-gamma-2. It is filed as functional.
For assay [9], the target named is T3, GABA-A receptor; alpha-2/beta-3/gamma-2 (Homo sapiens, UniProt P18507+P28472+P47869).
T3 sequence (P18507 whole entry): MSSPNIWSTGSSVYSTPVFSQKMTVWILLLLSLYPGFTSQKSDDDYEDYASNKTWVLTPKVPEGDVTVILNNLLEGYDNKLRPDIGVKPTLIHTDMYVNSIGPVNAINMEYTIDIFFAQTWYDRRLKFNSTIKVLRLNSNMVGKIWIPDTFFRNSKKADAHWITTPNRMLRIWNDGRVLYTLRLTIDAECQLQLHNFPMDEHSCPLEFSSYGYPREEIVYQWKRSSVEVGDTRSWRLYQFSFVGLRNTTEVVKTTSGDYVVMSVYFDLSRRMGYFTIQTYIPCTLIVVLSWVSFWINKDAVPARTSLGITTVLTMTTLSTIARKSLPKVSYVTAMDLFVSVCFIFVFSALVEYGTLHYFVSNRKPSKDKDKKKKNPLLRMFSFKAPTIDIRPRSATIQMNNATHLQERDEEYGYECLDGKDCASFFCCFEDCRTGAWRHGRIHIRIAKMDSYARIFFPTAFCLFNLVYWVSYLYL
T3 sequence (P28472 whole entry): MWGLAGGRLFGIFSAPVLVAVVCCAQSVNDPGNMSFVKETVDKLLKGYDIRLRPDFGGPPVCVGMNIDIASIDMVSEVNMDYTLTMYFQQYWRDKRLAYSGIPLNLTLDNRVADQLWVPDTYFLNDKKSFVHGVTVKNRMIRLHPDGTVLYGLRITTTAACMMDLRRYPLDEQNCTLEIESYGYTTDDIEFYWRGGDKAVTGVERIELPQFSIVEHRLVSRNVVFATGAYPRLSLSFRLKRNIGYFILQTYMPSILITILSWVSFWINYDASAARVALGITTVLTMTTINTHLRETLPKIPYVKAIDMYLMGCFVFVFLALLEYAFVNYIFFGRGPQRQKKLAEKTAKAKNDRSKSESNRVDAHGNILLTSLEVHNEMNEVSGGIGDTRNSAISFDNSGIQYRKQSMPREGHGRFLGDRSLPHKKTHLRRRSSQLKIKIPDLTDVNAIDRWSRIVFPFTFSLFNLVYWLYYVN
T3 sequence (P47869 whole entry): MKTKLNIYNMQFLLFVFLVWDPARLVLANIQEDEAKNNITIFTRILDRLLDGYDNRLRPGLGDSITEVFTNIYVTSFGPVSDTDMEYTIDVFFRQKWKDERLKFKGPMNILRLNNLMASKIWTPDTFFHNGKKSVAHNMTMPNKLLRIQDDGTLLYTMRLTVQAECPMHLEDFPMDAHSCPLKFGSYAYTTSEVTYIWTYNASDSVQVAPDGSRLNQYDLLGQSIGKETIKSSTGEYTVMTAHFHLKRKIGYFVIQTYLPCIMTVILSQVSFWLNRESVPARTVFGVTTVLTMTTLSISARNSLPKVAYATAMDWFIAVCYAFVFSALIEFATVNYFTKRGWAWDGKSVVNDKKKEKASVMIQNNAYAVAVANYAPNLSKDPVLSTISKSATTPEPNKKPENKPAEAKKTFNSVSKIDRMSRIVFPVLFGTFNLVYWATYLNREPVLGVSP
Nature of the assay: Effective dose for agonist activity on human Gamma-aminobutyric acid A receptor alpha-2-beta-3-gamma-2 in Xenopus oocytes. It counts as functional, cell-based, Oocyte.

For assay [10], the target named is T4, GABA-A receptor; alpha-3/beta-3/gamma-2 (Homo sapiens, UniProt P18507+P28472+P34903).
T4 sequence (P18507 whole entry): T3 sequence (P18507 whole entry)
T4 sequence (P28472 whole entry): T3 sequence (P28472 whole entry)
T4 sequence (P34903 whole entry): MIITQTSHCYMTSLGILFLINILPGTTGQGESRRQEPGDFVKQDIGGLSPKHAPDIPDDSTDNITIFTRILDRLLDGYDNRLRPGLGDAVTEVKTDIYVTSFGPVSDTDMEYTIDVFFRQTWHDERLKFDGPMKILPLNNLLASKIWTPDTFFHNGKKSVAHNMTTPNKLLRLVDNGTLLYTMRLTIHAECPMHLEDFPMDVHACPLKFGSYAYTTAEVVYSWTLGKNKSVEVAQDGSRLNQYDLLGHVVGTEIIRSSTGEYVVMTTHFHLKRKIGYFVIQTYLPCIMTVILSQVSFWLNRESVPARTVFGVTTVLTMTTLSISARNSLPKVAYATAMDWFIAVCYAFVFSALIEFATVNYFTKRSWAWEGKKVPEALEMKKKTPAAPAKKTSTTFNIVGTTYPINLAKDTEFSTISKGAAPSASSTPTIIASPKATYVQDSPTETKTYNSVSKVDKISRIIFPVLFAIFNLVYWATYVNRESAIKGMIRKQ
Nature of the assay: Agonist activity on human Gamma-aminobutyric acid A receptor alpha-3-beta-3-gamma-2 expressed in Xenopus oocytes. It counts as functional, cell-based, Oocyte.

Assay [11] addresses T5, GABA-A receptor; alpha-1/beta-3/gamma-2 (Homo sapiens, UniProt P14867+P18507+P28472).
T5 sequence (P14867 whole entry): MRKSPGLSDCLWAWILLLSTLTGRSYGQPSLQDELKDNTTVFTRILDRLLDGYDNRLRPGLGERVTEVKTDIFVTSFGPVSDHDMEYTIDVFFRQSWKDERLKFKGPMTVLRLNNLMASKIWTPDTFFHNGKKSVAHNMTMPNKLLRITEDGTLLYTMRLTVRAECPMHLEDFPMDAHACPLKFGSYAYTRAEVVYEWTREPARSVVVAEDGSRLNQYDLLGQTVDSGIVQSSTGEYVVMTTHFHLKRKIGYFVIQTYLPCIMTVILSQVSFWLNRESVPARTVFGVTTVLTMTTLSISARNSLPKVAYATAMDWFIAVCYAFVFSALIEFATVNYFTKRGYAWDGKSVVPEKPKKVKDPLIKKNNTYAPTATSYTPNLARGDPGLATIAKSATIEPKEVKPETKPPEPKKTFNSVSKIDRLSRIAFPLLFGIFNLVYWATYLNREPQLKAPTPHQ
T5 sequence (P18507 whole entry): T3 sequence (P18507 whole entry)
T5 sequence (P28472 whole entry): T3 sequence (P28472 whole entry)
The assay can be described thus: Effective agonist dose for human Gamma-aminobutyric acid A receptor alpha-1-beta-3-gamma-2 expressed in Xenopus oocytes. It counts as functional, cell-based, Oocyte.

For assay [12], the target named is T6, GABA-A receptor; alpha-5/beta-3/gamma-2 (Homo sapiens, UniProt P18507+P28472+P31644).
T6 sequence (P18507 whole entry): T3 sequence (P18507 whole entry)
T6 sequence (P28472 whole entry): T3 sequence (P28472 whole entry)
T6 sequence (P31644 whole entry): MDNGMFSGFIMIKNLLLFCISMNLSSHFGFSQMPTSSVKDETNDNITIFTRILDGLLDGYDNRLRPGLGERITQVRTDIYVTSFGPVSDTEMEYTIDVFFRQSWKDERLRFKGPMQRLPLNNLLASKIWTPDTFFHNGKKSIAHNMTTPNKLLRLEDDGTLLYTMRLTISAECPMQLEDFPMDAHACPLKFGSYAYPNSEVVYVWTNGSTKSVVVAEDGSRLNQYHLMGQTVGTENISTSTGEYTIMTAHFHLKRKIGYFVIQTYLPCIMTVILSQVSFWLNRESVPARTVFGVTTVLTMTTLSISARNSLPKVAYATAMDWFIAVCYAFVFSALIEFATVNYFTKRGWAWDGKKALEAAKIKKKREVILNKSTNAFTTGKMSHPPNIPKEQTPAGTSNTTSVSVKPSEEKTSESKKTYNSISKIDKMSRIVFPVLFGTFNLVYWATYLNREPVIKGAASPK
Nature of the assay: Effective agonist dose for human Gamma-aminobutyric acid A receptor alpha-5-beta-3-gamma-2 expressed in Xenopus oocytes. It is filed as functional, cell-based, Oocyte.

T1 sequence (P48169 whole entry, one chain of several): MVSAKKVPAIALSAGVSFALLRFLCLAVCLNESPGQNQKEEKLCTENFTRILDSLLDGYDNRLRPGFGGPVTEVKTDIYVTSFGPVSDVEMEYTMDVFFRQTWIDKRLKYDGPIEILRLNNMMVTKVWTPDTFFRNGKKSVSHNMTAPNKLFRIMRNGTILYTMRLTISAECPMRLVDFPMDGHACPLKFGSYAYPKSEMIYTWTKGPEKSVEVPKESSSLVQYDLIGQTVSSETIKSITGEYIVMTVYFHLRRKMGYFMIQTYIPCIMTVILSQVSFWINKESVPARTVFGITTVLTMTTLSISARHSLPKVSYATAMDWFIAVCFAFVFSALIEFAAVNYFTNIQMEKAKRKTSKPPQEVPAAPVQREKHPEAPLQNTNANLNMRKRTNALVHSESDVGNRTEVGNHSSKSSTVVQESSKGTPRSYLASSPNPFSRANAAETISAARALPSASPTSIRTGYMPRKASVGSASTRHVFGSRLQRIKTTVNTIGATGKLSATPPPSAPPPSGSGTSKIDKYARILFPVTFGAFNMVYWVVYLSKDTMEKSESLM
T2 sequence (Q16445 whole entry, one chain of several): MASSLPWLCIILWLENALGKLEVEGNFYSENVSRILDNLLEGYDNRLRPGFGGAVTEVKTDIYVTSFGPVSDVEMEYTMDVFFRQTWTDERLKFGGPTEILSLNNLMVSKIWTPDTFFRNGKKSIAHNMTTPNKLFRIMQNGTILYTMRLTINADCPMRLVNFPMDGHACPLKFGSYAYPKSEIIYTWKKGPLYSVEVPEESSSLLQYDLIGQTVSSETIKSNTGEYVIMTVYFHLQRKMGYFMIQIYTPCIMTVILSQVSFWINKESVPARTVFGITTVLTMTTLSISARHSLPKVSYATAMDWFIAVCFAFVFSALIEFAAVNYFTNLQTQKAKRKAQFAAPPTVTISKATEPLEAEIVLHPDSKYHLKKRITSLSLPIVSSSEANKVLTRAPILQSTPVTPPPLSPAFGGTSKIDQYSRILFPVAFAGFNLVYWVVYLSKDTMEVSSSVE

Take `O=[Se](O)C1CCNCC1`: the Max in assay [1] was found to be 0; in assay [2] it was 2; in assay [3], 3; in assay [4] it was 28; in assay [5] it was 13; in assay [6] it was 3. Moreover, the concentration giving a half-maximal response (EC50) came out at 160 µM in [7]; 240 µM in [8]; 170 µM in assay [9]; 180 µM in [10]; 200 µM in [11]; 420 µM in assay [12].
